Tests used:
[1] = tested on: MYB; experiment: Gene panel canonical junction qPCR assay, MYB CJ mRNA (Table 7); assay type: cell-based; details: Homo sapiens, read-out: MYB CJ mRNA decrease IC50
In short: (§1)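 A673/K562 cells + cpd → lysate → cDNA → qPCR, CY5 5′ nuclease probe set overlapping canonical junction. Normalized to GAPDH/GUSB/PPIA and DMSO via ΔΔCt, RQ → % response over fixed ΔCt window. IC50 = 50% CJ decrease, 4PL fit.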

[2] = tested on: Target C; experiment: Gene panel canonical junction qPCR assay, Target C CJ mRNA (Table 7); assay type: cell-based, human; details: Homo sapiens, read-out: Target C CJ mRNA decrease IC50
In short: as §1

[3] = tested on: HTT; experiment: Gene panel canonical junction qPCR assay, HTT CJ mRNA (Table 7); assay type: cell-based, human; details: Homo sapiens, read-out: HTT CJ mRNA decrease IC50
In short: as §1

[4] = tested on: HiBit-tagged HTT in K562 cells; experiment: HiBiT protein abundance assay, HTT; assay type: cell-based, human; details: HiBiT-modified K562 cells, 24 hours, luminescence
Experimental: (§2) Compounds described herein were used to screen for effects on quantitative protein abundance using a HiBit assay system (Promega). Quantitative protein abundance was determined by measuring the protein levels of HiBit-tagged protein targets expressed in cell culture via luminescence using the Nano-Glo HiBiT Lytic Detection System, which uses a split complementation assay format to reconstitute NanoBiT enzyme to generate a luminescent signal. A protein abundance assay was developed such that endogenous protein targets could be modified with the HiBiT peptide tag and their abundance could be assessed after compound treatment. Briefly, K562 cell lines containing a HiBiT-modification were treated with various compounds described herein (e.g., compounds of Formulas (I)). After treatment for 24 hours, the protein abundance of a specific target was determined by measuring luminescence.
(§3) Cells were maintained in IMDM with 10% FBS. Before the assay, cells were diluted with […] growth media (IMDM+[…] media) and were seeded in a 384-well plate at a density of 10000 cells/well (for each cell line listed in Table 8). Each compound was prepared as a 10-point 3-fold serial dilution in DMSO with the top dose at a final concentration of 10 μM in the well. Unmodified K562 cells were added at the previously specified density with DMSO to serve as an assay baseline and positive control (PC) and DMSO only with the respective modified cell lines was added to the negative control (NC) columns. Final DMSO concentration was kept at or below 0.25% o. Treated cell plates were placed in an incubator at 37° C. with […] for 24 hours. After 24 hours, 25 μL of Complete HiBit Lytic reagent was added to each well at room temperature (e.g. one plate requiring 10 mL Lytic Buffer, 100 μL LgBiT Protein, 200 μL Lytic Substrate), shaken for 5 minutes at 600 RPM, then left to sit for 10 minutes for signal to stabilize before reading on a Spark Cyto plate reader (Tecan) with a 500 ms measurement time.
(§4) To determine compound effects on protein abundance of each target in Table 9, the percent response for each respective cell line was calculated at each compound concentration as follows:
(§5) For the normalized response at each concentration, a four-parameter logistical regression was fit to the data and the response was interpolated at the […] to determine a concentration for protein abundance at 50% o (IC50) the untreated control.

[5] = tested on: SMN2; experiment: Gene panel canonical junction qPCR assay, SMN2 CJ mRNA (Table 7); assay type: cell-based; details: Homo sapiens, read-out: SMN2 CJ mRNA decrease IC50
In short: as §1

[6] = tested on: HiBit-tagged Target C in K562 cells; experiment: HiBiT protein abundance assay, Target C; assay type: cell-based, human; details: HiBiT-modified K562 cells, 24 hours, luminescence
Experimental: as §2, §3, §4, §5

Structure (SMILES)	IC50 [1]	IC50 [2]	IC50 [3]	IC50 [4]	IC50 [5]	IC50 [6]
c1cc2c(cc1-c1cn[nH]c1)COc1nc(O[C@@H]3C[C@H]4CC[C@@H](C3)N4)ccc1-2 [Compound 218]	0.1 to 1 µM	0.1 to 1 µM	< 0.1 µM	0.1 to 1 µM	< 0.1 µM	0.1 to 1 µM
Cc1[nH]ncc1-c1ccc2c(c1)COc1nc(N(C)[C@@H]3C[C@H]4CC[C@@H](C3)N4)ccc1-2 [Compound 154]	0.1 to 1 µM	0.1 to 1 µM	0.1 to 1 µM	< 0.1 µM	0.1 to 1 µM	0.1 to 1 µM
COc1cc(-c2ccc3c(c2)COc2nc(N4CCN[C@@H](C)C4)ccc2-3)cnn1 [Compound 287]	1 to 10 µM	1 to 10 µM	0.1 to 1 µM	0.1 to 1 µM	0.1 to 1 µM	0.1 to 1 µM
CN(c1ccc2c(c1)COc1cc(-n3cccn3)ccc1-2)C1CC(C)(C)NC(C)(C)C1 [Compound 117]	1 to 10 µM		> 10 µM	1 to 10 µM	> 10 µM	1 to 10 µM
COc1cc(-c2ccc3c(c2)COc2nc(N4CCC(N(C)C)C4)ccc2-3)cnn1 (centres unmarked) [Compound 306, 1-[8-(6-methoxypyridazin-4-yl)-6H-isochromeno[3,4-b]pyridin-3-yl]-N,N-dimethylpyrrolidin-3-amine]	1 to 10 µM	1 to 10 µM	0.1 to 1 µM	0.1 to 1 µM	0.1 to 1 µM	0.1 to 1 µM
CC1(C)CC(Nc2ccc3c(n2)COc2cc(-n4cccn4)ccc2-3)CC(C)(C)N1 [Compound 134]	1 to 10 µM	< 0.1 µM	1 to 10 µM	1 to 10 µM	1 to 10 µM	1 to 10 µM
CC1(C)CC(Nc2ccc3c(n2)OCc2cc(-n4cccn4)ccc2-3)CC(C)(C)N1 [Compound 165]	1 to 10 µM	0.1 to 1 µM	0.1 to 1 µM	< 0.1 µM	< 0.1 µM	0.1 to 1 µM
CN(c1ccc2c(n1)OCc1cc(-n3ccnn3)ccc1-2)[C@@H]1C[C@H]2CC[C@@H](C1)N2 [Compound 152]	0.1 to 1 µM	0.1 to 1 µM	0.1 to 1 µM	< 0.1 µM	< 0.1 µM	0.1 to 1 µM
c1cnn(-c2ccc3c(c2)COc2nc(NC4CNC4)ccc2-3)c1 [Compound 166]	> 10 µM	> 10 µM	> 10 µM	1 to 10 µM	1 to 10 µM	> 10 µM
COc1cc(-c2ccc3c(c2)COc2nc(N4CCC(NC5(C)CCC5)C4)ccc2-3)cnn1 (centres unmarked) [Compound 285, 1-[8-(6-methoxypyridazin-4-yl)-6H-isochromeno[3,4-b]pyridin-3-yl]-N-(1-methylcyclobutyl)pyrrolidin-3-amine]	0.1 to 1 µM	0.1 to 1 µM	< 0.1 µM	0.1 to 1 µM	< 0.1 µM	0.1 to 1 µM
CN(c1ccc2c(c1)OCc1cc(-c3cn[nH]c3)ccc1-2)[C@@H]1C[C@H]2CC[C@@H](C1)N2 [Compound 104]	> 10 µM	> 10 µM	> 10 µM	1 to 10 µM		1 to 10 µM
C[C@@H]1C[C@H](N(C)c2ccc3c(c2)OCc2cc(-c4cn[nH]c4)ccc2-3)CCN1 [Compound 101]	> 10 µM	> 10 µM		1 to 10 µM		1 to 10 µM
C[C@H]1C[C@H](N(C)c2ccc3c(c2)OCc2cc(-c4cn[nH]c4)ccc2-3)CCN1 [Compound 102]	> 10 µM	> 10 µM	> 10 µM	1 to 10 µM		1 to 10 µM
CC1(C)CC(Nc2ccc3c(c2)COc2cc(-n4cccn4)ccc2-3)CC(C)(C)N1 [Compound 118]	> 10 µM		> 10 µM	1 to 10 µM	> 10 µM	1 to 10 µM
CN(c1ccc2c(c1)OCc1cc(-n3cccn3)ccc1-2)[C@@H]1C[C@H]2CC[C@@H](C1)N2 [Compound 105]	> 10 µM		> 10 µM	1 to 10 µM	> 10 µM	1 to 10 µM
